Experimental data from US20110230504A1, “ALLEVIATING DISORDERS WITH COMBINING AGENTS THAT INCREASE EPOXYGENATED FATTY ACIDS AND AGENTS THAT INCREASE cAMP” (The Regents Of The University Of California Office Of …, priority 2008, published 2011).
Entries after “also recorded” stand apart in the source; their conditions may differ.

How the values were obtained:
[1] = system: rats; assay: Thermal hindpaw withdrawal latency (Hargreaves), non-inflammatory model; format: in vivo, rat
Experimental: (§1) Behavioral nociceptive testing was conducted by assessing thermal hindpaw withdrawal latencies (TWL) using a commercial Hargreaves apparatus (IITC, Woodland Hills, Calif.), or by determining mechanical hind paw withdrawal thresholds (MWT) using a digital paw pressure Randall-Selitto instrument (IITC, Woodland Hills, Calif.). On the day of the experiment, rats were transferred to a quiet room, acclimated for 1 hour and their baseline responses were measured. In pilot experiments, the intensity of the thermal stimulus was set to produce a baseline TWL of 7-8 sec. Baseline mechanical hind paw withdrawal thresholds varied between 60-70 grams of force. Immediately following baseline determination all compounds were administered subcutaneously in the following vehicles; Inhibitors of sEH were formulated in trans free oleate and administered in a total volume of 300 µL Rolipram, picrotoxin, flucanozole, miconazole and finasteride were all dissolved in a sterile saline solution containing 25% DMSO and administered in a volume of 50 μl. Caffeine was dissolved in saline and administered in a total volume of 300 μl. All agents were administered subcutaneously into the back. In groups treated with the sEHi, cytochrome P450 inhibitors, finasteride or picrotoxin animals were pretreated one hour before other compounds. In groups treated with the PDEi, immediately following PDEi administration animals were placed in acrylic chambers on a glass platform maintained at a temperature of 30±1° C. for TWL measurement. Three to five TWL measurements were taken at 1-2 min interstimulus intervals following treatments and these were averaged for each animal at each time point. For MWT measurement, 45 minutes following treatment, the probe of the Randall-Selitto paw pressure meter was applied to the dorsal surface of the hind paw. The instrument was set to the maximum holding (MH) mode and the readout that elicited a hind paw withdrawal was designated as the threshold. Three MWT measurements were taken at 1-2 min interstimulus intervals and these were averaged for each animal. Data are presented as percent change from each animal's baseline response. Open field activity was quantified using a Plexiglas chamber (40×40×30 cm, length×width×height) imprinted with a 10×10 cm grid. Animals were placed in the middle of the chamber and observed for two minutes. The number of crossings were recorded when both hind paws crossed into a neighboring cell.
A non-inflammatory model was used to test the hypothesis that elevated intracellular cAMP and EETs will act synergistically in producing antinociception. Intracellular cAMP levels were increased by administering increasing doses of two CNS permeable PDEi; rolipram, a PDE-4 selective inhibitor and caffeine, a non selective PDEi. […]

[2] = system: rats; assay: Mechanical hind paw withdrawal threshold (Randall-Selitto), non-inflammatory model; format: in vivo, rat
Experimental: as §1, with “For MWT measurement, 45 minutes following treatment, the probe of the Randall-Selitto paw pressure meter was applied to the dorsal surface of the hind paw.” left out, “Three MWT measurements were taken at 1-2 min interstimulus intervals and these were averaged for each animal. Data are presented as percent change from each animal's baseline response.” left out, “Animals were placed in the middle of the chamber and observed for two minutes.” left out, “cell. […]” for “cell.”

[3] = system: rats; assay: Open field / motor activity; format: in vivo, rat; details: rolipram 0.1 and TPAU 10 mg/kg
[4] = system: StARD1 mRNA; assay: StARD1 expression after rolipram and TPAU, qRT-PCR; format: in vivo, rat; details: rats
From the text: Briefly, RNA from whole spinal cord, brain and adrenal gland samples were extracted using a purelink Micro to Midi total RNA purification kit (Invitrogen, CA). The RNA samples were quantified by spectrophotometry and converted to cDNA using a high capacity cDNA reverse transcription kit from Applied Biosystems (CA, USA). Taq-man probe for StARD1 (Rn00580695_ml) was used according to manufacturer's instructions to quantify relative gene expression (Applied Biosystems CA, USA). Experiments were performed in triplicate with glyceraldehyde 3-phosphate dehydrogenase gene serving as the endogenous control. Mean fold expression values from corresponding vehicle treated animal tissues were used as calibrators.
These findings encouraged us to investigate the expression of StARD1 message as a marker of steroidogenic activity. […] Adrenal StARD1 from the same animals was also monitored as a marker of peripheral steroidogenesis.

[5] = system: allopregnanolone; assay: Radioimmunoassay of allopregnanolone in spinal cord and brain; format: in vivo, rat; details: rats, increasing rolipram doses, TPAU 10 mg/kg s.c.
Experimental: Radioimmunoassays were conducted as previously described (Janis G, C. et al., Alcoholism: Clinical and Experimental Research 22:2055-2061 (1998)). Briefly, spinal cord and brain samples were weighed and suspended in 2.5 ml of 0.3N NaOH, homogenized with a sonic dismembrator, and extracted three times with 3 ml aliquots of 10% ethyl acetate in heptane (vol/vol). Extraction recovery was monitored by the addition of 2000 cpm of [^3H]allopregnanolone. The extracts were purified using solid phase silica columns (Burdick and Jackson, Muskegon, Mich.) and subsequently dried. Samples were reconstituted and assayed in duplicate by the addition of [^3H]allopregnanolone and anti-allopregnanolone antibody (1:2000; Custom synthesis, Reproductive Endocrine Unit, Massachusetts General Hospital). Total binding was determined in the absence of unlabeled allopregnanolone and nonspecific binding was determined in the absence of antibody. The antibody binding reaction is allowed to equilibrate for 2 hours and cold dextran-coated charcoal was used to separate bound from unbound steroid. Bound radioactivity was determined by liquid scintillation spectroscopy. Steroid levels in the samples were extrapolated from a concurrently run standard curve and corrected for their respective extraction efficiencies. The sensitivity of the assay was 0.63 ng/ml. The intraassay coefficient of variation was <5%.

[6] = system: C57BL/6 mice; assay: Pentobarbital induced loss of righting reflex; format: in vivo, mouse; details: pentobarbital 40 mg/kg i.p., TPAU 3 mg/kg, rolipram 1 mg/kg s.c.
From the text: Loss of righting was quantified as previously described, with a slightly lower dose of pentobarbital (Pinna, et al. (2004) Proc Natl Acad Sci USA, 101(16), 6222-6225).
In rats, sEHi-PDEi combination led to significant increases in nociceptive thresholds. We asked if co-administration of sEHi-PDEi combination would also enhance GABA-related activity in mice. Loss of righting reflex in pentobarbital administered mice following sEHi and PDEi administration was quantified.

[7] = system: C57BL/6 mice; sEH null mice; assay: Picrotoxin induced seizures; format: in vivo, mouse
[8] = system: rats; assay: Thermal withdrawal latency, intraplantar LPS inflammatory pain model and non-inflamed controls; format: in vivo, rat; details: for effect on AEPU mediated antihyperalgesia: LPS treated rats, AEPU 50 mg/kg topical; for thermal withdrawal latency in the absence of inflammation: control rats, i.pl. saline; for LPS elicited thermal hyperalgesia (thermal withdrawal latency): rats, i.pl. LPS 10 μg
[9] = system: rats; assay: Streptozocin induced diabetic neuropathy, Von Frey mechanical allodynia; format: in vivo, rat; details: Von Frey's test
Experimental: The study was approved by UC Davis Animal Care and Use Committee. Male Sprague-Dawley rats weighing 250-350 g were obtained from Charles River Inc. Two models of inflammatory pain and one model of diabetic neuropathic pain were used to test the effects of sEHI. The main inflammatory pain model used involved intraplantar LPS (10 μg/animal) administration as described previously (Inceoglu B et al., Life Sci 79:2311-2319 (2006)). Briefly, following baseline thermal withdrawal latency and mechanical withdrawal threshold determination LPS (in saline) was administered into one hind paw and nociceptive thresholds were monitored over time. The other inflammatory pain model involved intraplantar carrageenan (1% in saline, 50 μl) administration and was only used when sEHI was administered into the spinal cord. Intrathecal catheters were implanted according to Yaksh and Rudy (Yaksh T L and Rudy T A, Physiol Behav 17(6):1031-1036 (1976)). Following baseline nociceptive response measurements carrageenan was administered into one hind paw and responses were monitored over time and after intraspinal sEHI administration. […] In experiments in which EETs, sEHI and cAMP analogue was administered intraspinally animals were maintained under deep anesthesia and therefore nociceptive thresholds were not determined.

[10] = Brain, blood and plasma inhibitor levels, LC-ESI-MS/MS; details: 10 mg/kg TPAU, 40 mg/kg AUDA; unpublished results
[11] = system: StARD1 mRNA; assay: StARD1 mRNA 30 min after intraspinal 8-Br cAMP, EETs, AEPU in non-inflamed rats; format: in vivo, rat; details: 8-Br cAMP 100 μg, EETs 5 μg, AEPU 1 μg
Experimental: To investigate the cooperation between cAMP and EETs in the spinal cord, a membrane permeable cAMP analogue, 8-Br cAMP (100 μg), was administered into the spinal cord by lumbar puncture (between L4-L5) and rapid (30 min.) expression of StARD1 mRNA in the spinal cord and the brain was quantified by qRT-PCR. In these experiments animals were maintained under deep anesthesia.

[12] = system: plasma oxylipins (EETs, DHETs, PGE2); assay: Plasma oxylipin analysis in LPS treated rats; format: in vivo, rat
From the text: Plasma was collected by cardiac puncture under deep anesthesia. Rats were anesthetized by isoflurane overdose and decapitated. Whole brains were immediately excised and flash frozen. […] Dorsal roots were excluded.

[13] = system: circulating testosterone and progesterone; assay: Circulating steroid hormone levels by RIA; format: in vivo, rat; details: rats
[14] = one hour, increasing rolipram doses, TPAU 10 mg/kg

Compound: COc1ccc(C2CNC(=O)C2)cc1OC1CCCC1 (centres unmarked) [Rolipram]
- ED50 ([1]; Rattus norvegicus, sc): 0.53 mg/kg
- efficacy, increase over baseline in thermal withdrawal latency ([1]; rats, s.c.): 202%
- ED50 ([2]; Rattus norvegicus, sc, rats, rolipram dose, AUDA 40 mg/kg): 0.3 mg/kg
- open field activity / motor function [3]: depression of activity
- decrease in adrenal gland StARD1 expression [4]: 30%
- brain StARD1 expression [4, 14]: no change
- spinal cord StARD1 expression [4, 14]: biphasic increase
- brain allopregnanolone levels [5]: significantly increased allopregnanolone levels at one dose point only
- spinal cord allopregnanolone levels [5]: did not change
- duration of pentobarbital induced loss of righting response [6]: no effect; also recorded: did not change
- time to onset of picrotoxin induced seizures ([7]; C57BL/6 mice, picrotoxin 10 mg/kg s.c., TPAU 3 mg/kg, rolipram 1 mg/kg s.c.): no effect
- onset of picrotoxin induced seizures in sEH null mice ([7]; sEH null mice, increasing doses): delayed in a dose dependent manner

Compound: CC(=O)S[C@@H]1CC2=CC(=O)CC[C@]2(C)[C@H]2CC[C@@]3(C)[C@@H](CC[C@@]34CCC(=O)O4)[C@H]12 [spironolactone]
- effect on AEPU mediated antihyperalgesia [8]: did not block

Compound: CC(C)(C)NC(=O)[C@H]1CC[C@H]2[C@@H]3CC[C@H]4NC(=O)C=C[C@]4(C)[C@H]3CC[C@]12C [finasteride]
- effect on AEPU mediated antihyperalgesia [8]: blocked
- thermal withdrawal latency in the absence of inflammation [8]: failed to alter
- LPS elicited thermal hyperalgesia (thermal withdrawal latency) [8]: failed to alter
- effect on the dose-effect curve of rolipram (antinociception) ([1]; rats, s.c.): antagonized

Compound: CC#C[C@]1(O)CC[C@H]2[C@@H]3CCC4=CC(=O)CCC4=C3[C@@H](c3ccc(N(C)C)cc3)C[C@@]21C [mifepristone]
- effect on AEPU mediated antihyperalgesia [8]: did not block

Compound: O=C(O)CCCCCCCCCCCNC(=O)NC12CC3CC(CC(C3)C1)C2 [AUDA, 12-(3-Adamantan-1-yl-ureido)dodecanoic acid]
- mechanical allodynia elicited by streptozocin induced diabetic neuropathy [9]: reduced
- thermal withdrawal latency, sEHi alone ([1]; rats, s.c., over 4 hours, vs baseline): no significant differences
- effect on caffeine's increase of mechanical withdrawal threshold ([2]; rats, AUDA 40 mg/kg): enhanced
- plasma inhibitor levels relative to rat sEH IC50 [10]: 200 fold

Compound: Clc1ccc(COC(Cn2ccnc2)c2ccc(Cl)cc2Cl)c(Cl)c1 (centres unmarked) [miconazole]
- effect on the dose-effect curve of rolipram (antinociception) ([1]; rats, s.c.): failed to change

Compound: CC/C(=C(\c1ccccc1)c1ccc(OCCN(C)C)cc1)c1ccccc1 [tamoxifen]
- effect on AEPU mediated antihyperalgesia [8]: did not block

Compound: CC1(C)NC(=O)N(c2ccc([N+](=O)[O-])c(C(F)(F)F)c2)C1=O [nilutamide]
- effect on AEPU mediated antihyperalgesia [8]: did not block

Compound: Nc1ncnc2c1nc(Br)n2[C@@H]1O[C@@H]2COP(=O)(O)O[C@H]2[C@H]1O [8-Br cAMP]
- brain StARD1 expression [11]: Neither brain nor spinal StARD1 expression changed
- spinal StARD1 expression [11]: without effect

Compound: picrotoxin
- effect on rolipram+AUDA antinociception, thermal withdrawal ([1]; picrotoxin 0.25 mg/kg): antagonized
- baseline nociceptive responses, given alone ([1]; picrotoxin 0.25 mg/kg s.c.): did not change baseline responses
- effect on rolipram+AUDA increase in mechanical withdrawal threshold ([2]; picrotoxin 0.25 mg/kg): antagonized

Compound: OC(Cn1cncn1)(Cn1cncn1)c1ccc(F)cc1F [Flucanozole]
- effect on the dose-effect curve of rolipram (antinociception) ([1]; rats, s.c.): antagonized

Compound: Cn1c(=O)c2c(ncn2C)n(C)c1=O [caffeine]
- open field activity / motor function [3]: did not cause depression of motor activity

Compound: CCC1(c2ccc(N)cc2)CCC(=O)NC1=O (centres unmarked) [aminoglutethimide]
- effect on AEPU mediated antihyperalgesia [8]: blocked
- thermal withdrawal latency in the absence of inflammation [8]: failed to alter
- LPS elicited thermal hyperalgesia (thermal withdrawal latency) [8]: failed to alter
- plasma EET/DHET ratio ([12]; LPS and AEPU-treated rats): did not change
- antagonism of sEHI reduction of PGE2 ([12]; LPS+AEPU+AGL treated rats): did not antagonize
- circulating / plasma progesterone level [13]: significantly reduced
